Results from US6518284B2, “4-substituted piperidines” (Faes, Fabrica Espanola de Productos Quimicos Y …, priority 1999, dated 2003).
Read-outs that look alike come from different tables or passages of the source.

Tests used:
Format in all cases: binding
[1] = molecular target: T1, Dopamine uptake sites (transporters) (Rattus norvegicus, UniProt P23977); experiment: Affinity for dopamine uptake sites (transporters), rat brain; details: read-out: K1 values, Dopamine uptake sites (transporters)
T1 construct: Uptake sites (transporters); Rat brain; from tissue; host or cells: rat brain

[2] = molecular target: T2, serotonin reuptake receptors (5HT) / Serotonin uptake sites (transporters) (Rattus norvegicus, UniProt P31652); experiment: Affinity for serotonin reuptake sites, [3H]-paroxetine radioligand, rat cerebral cortex; details: Rat brain; read-out: K1 values, Serotonin uptake sites (transporters)
T2 construct: from tissue; host or cells: rat cerebral cortex
From the text: (§1) The pharmacological activity of the compounds of general formula (I) was determnined-using well-established in vitro and in vivo pharmacological processes.

[3] = molecular target: noradrenaline (NA) reuptake receptors / Noradrenaline uptake sites (transporters) (Rattus norvegicus, UniProt Q63380); experiment: Affinity for noradrenaline reuptake sites, [3H]-nisoxetine radioligand, rat cerebral cortex; details: Rat brain, read-out: K1 values, Noradrenaline uptake sites (transporters)
From the text: as §1

Chain of noradrenaline (NA) reuptake receptors / Noradrenaline uptake sites (transporters) (Q63380 1-617): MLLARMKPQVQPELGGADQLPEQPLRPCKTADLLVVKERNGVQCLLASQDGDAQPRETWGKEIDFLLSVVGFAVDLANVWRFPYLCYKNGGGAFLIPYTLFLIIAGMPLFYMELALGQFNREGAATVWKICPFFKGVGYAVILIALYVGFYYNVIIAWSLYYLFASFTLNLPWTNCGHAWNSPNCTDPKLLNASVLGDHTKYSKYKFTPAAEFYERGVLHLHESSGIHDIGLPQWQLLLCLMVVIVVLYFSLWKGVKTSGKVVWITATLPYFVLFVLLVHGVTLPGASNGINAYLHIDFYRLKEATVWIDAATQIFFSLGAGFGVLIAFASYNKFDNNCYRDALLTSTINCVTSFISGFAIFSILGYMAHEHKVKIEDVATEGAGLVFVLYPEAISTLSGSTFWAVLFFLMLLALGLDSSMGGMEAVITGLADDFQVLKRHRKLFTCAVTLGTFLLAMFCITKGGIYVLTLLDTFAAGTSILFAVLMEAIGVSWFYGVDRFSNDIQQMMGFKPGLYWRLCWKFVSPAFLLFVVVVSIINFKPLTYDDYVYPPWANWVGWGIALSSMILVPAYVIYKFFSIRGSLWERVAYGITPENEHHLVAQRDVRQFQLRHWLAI
T1 sequence (P23977 whole entry): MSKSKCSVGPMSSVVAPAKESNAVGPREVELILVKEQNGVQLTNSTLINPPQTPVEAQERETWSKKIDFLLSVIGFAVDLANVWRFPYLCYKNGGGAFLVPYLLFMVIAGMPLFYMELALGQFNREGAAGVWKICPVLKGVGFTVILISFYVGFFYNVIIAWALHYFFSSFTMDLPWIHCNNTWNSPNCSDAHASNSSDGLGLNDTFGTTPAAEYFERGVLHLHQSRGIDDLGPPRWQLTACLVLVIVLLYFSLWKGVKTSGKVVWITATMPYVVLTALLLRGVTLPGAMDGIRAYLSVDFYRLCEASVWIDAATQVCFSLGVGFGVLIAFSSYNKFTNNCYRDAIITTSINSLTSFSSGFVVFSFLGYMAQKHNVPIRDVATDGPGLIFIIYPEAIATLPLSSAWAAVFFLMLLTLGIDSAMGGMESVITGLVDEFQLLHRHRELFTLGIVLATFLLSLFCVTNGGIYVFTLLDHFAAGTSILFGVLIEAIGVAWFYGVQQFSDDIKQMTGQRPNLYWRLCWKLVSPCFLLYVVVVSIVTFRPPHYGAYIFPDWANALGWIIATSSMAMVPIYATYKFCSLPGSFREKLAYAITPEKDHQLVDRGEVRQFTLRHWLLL
T2 sequence (P31652 whole entry): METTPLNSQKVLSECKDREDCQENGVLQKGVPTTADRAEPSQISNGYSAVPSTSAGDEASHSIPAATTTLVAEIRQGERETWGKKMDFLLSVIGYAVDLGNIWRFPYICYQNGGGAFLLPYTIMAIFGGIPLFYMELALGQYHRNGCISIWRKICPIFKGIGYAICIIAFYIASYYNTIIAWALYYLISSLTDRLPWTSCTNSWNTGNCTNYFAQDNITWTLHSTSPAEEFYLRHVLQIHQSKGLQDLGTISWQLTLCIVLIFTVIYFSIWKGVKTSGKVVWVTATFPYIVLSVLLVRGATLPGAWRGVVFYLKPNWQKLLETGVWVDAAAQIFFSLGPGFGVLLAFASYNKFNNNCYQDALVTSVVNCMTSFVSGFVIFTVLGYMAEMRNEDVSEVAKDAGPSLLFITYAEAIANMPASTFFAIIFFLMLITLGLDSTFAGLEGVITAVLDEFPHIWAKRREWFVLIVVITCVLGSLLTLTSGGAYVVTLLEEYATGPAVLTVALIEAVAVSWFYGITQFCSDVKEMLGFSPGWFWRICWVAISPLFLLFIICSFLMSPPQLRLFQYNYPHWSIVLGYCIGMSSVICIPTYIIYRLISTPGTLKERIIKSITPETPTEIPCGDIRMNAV

SMILES | Ki [1] | Ki [2] | Ki [3] | Ki ([1]; bounds given in μM) | Ki ([3]; bounds given in μM)
Fc1ccc(O[C@@H](c2ccccc2)C2CCNCC2)cc1 [Compound F-97814-TA] | 0.821 µM | 0.45 nM | – | – | –
Fc1ccc(O[C@H](c2ccccc2)C2CCNCC2)cc1 [Compound F-97815-TA] | 0.253 µM | 45.9 nM | 1.45 µM | – | –
Fc1cccc(O[C@@H](c2ccccc2)C2CCNCC2)c1 [Compound F-98212-TA] | – | – | 0.107 µM | > 1 µM | –
Fc1cccc(O[C@H](c2ccccc2)C2CCNCC2)c1 [Compound F-98214-TA] | 0.461 µM | – | 0.0135 µM | – | –
FC(F)(F)c1ccc(OC(c2ccccc2)C2CCNCC2)cc1 (stereo not drawn) [Compound F-98404-TA] | – | 14.9 nM | – | > 1 µM | > 10 µM
FC(F)(F)c1ccc(O[C@H](c2ccccc2)C2CCNCC2)cc1 [Compound F-98408-TA] | – | 34.8 nM | – | > 1 µM | > 10 µM
O=[N+]([O-])c1ccc(O[C@H](c2ccccc2)C2CCNCC2)cc1 [Compound F-98603-PD] | – | 0.63 nM | – | > 10 µM | > 1 µM
Fc1ccccc1O[C@H](c1ccccc1)C1CCNCC1 [Compound F-98607-PD] | – | 4.2 nM | 0.0225 µM | > 1 µM | –
O=[N+]([O-])c1ccc(OC(c2ccccc2)C2CCNCC2)cc1 (stereo not drawn) [Compound F-98610-PD] | – | 15.1 nM | – | > 1 µM | > 1 µM
Clc1cccc(O[C@@H](c2ccccc2)C2CCNCC2)c1 [Compound F-98616-TA] | – | – | 0.0558 µM | > 1 µM | –
Clc1cccc(O[C@H](c2ccccc2)C2CCNCC2)c1 [Compound F-98620-TA] | – | – | – | > 1 µM | –
N#Cc1cccc(O[C@H](c2ccccc2)C2CCNCC2)c1 [Compound F-98715-TA] | 0.11 µM | 1.68 nM | 0.0869 µM | – | –
N#Cc1cccc(OC(c2ccccc2)C2CCNCC2)c1 (stereo not drawn) [Compound F-98716-TA] | – | 1.43 nM | 0.18 µM | > 1 µM | –
Fc1ccccc1O[C@@H](c1ccccc1)C1CCNCC1 [Compound F-98718-PD] | 0.52 µM | 28.5 nM | 0.0414 µM | – | –
Fc1cc(F)cc(O[C@H](c2ccccc2)C2CCNCC2)c1 [Compound F-98814-TA] | – | 1.4 nM | 0.0248 µM | > 1 µM | –
Fc1cc(F)cc(O[C@@H](c2ccccc2)C2CCNCC2)c1 [Compound F-98822-TA] | – | 7.09 nM | 0.386 µM | > 1 µM | –
Fc1cccc(O[C@H](c2cccc(F)c2)C2CCNCC2)c1 [Compound F-98828-PD] | 0.113 µM | 9.99 nM | 0.128 µM | – | –
Fc1cccc(O[C@@H](c2cccc(F)c2)C2CCNCC2)c1 [Compound F-98829-PD] | – | 2.83 nM | 0.0175 µM | > 1 µM | –
Fc1cccc([C@H](Oc2ccccc2F)C2CCNCC2)c1 [Compound F-98917-PD] | – | 4.3 nM | 0.0191 µM | > 1 µM | –
Fc1cccc([C@@H](Oc2ccccc2F)C2CCNCC2)c1 [Compound F-98925-PD] | 0.377 µM | 27.6 nM | 0.0481 µM | – | –
